# Values quoted from earlier work in patent US9849088B2, “Depot formulations of a hydrophobic active ingredient and methods for preparation thereof” (PAINREFORM LTD., priority 2012, dated 2017).
# Settings: comparison value
smiles,measurement,value
CCCN1CCCC[C@H]1C(=O)Nc1c(C)cccc1C [ropivacaine],Toxic threshold (plasma),0.6 µg/mL
